Measured values as given in PMC8760490, “Discovery of novel furanylbenzamide inhibitors that target oncogenic tyrosine phosphatase SHP2 in leukemia cells” (The Journal of Biological Chemistry, 2021).

Tests used:
[1] = biological target: T1, full-length SHP2 WT (SHP2-WT) (Homo sapiens, UniProt Q06124); test: DiFMUP fluorescence phosphatase inhibition assay, SHP2-WT activated with IRS-1 peptide; format: biochemical; settings: DiFMUP at Km (60 μM), pH 6.0
T1 construct: Recombinant human full-length SHP2 (1–594) WT and E76K mutants; made in house
Source text: (§1) To test the synthesized compounds for their potential to inhibit SHP2 activity, a fluorescence intensity-based assay using 6,8-difluoro-4-methylumbelliferyl phosphate (DiFMUP) as the substrate was adapted for three recombinant SHP2 constructs: (1) the SHP2 catalytic domain (SHP2cat; residues 248–527), (2) the full-length SHP2-E76K oncogenic mutant, and (3) the full-length SHP2 WT (SHP2-WT). The recombinant SHP2 proteins were expressed and purified as described previously ([36]). A dually phosphorylated peptide derived from the insulin receptor substrate 1 (IRS-1) served as a surrogate binding protein and was used to activate SHP2-WT ([30], [36]). […] Michaelis–Menten experiments to determine the DiFMUP Michaelis–Menten constant (Km) for each SHP2 construct were performed as described previously ([36]) and yielded the following values: SHP2-WT, Km = 60 μM; SHP2-E76K, Km = 20 μM; and SHP2cat, Km = 20 μM. Relative maximum rates (Vmax) of the DiFMUP reactions expressed as relative fluorescence units per minute (RFU/min) were as follows: SHP2-WT, Vmax = 871 RFU/min; SHP2-E76K, Vmax = 2730 RFU/min; and SHP2cat, Vmax = 2912 RFU/min. IC50 values for each compound were determined from initial rates in 10-point dose–response assays using DiFMUP at a concentration corresponding to its Km value for the respective SHP2 construct. […] Replacements for the benzothiophenone were explored using analog #10.
(§2) Recombinant human full-length SHP2 (1–594) WT and E76K mutants, as well as the SHP2cat (248–527), were expressed and purified as described before ([36], [41]). Recombinant human PTP1B (1–300) and the codon-optimized STEP (280–566) catalytic domains were cloned into PET-15b and expressed as N-His-tagged fusion proteins. For expression, transformed BL21(DE3) cells were grown and induced similar as described for SHP2. Collected cells were resuspended in lysis buffer (25 mM Tris, pH 7.5, 300 mM NaCl, 50 mM imidazole, and 10% glycerol) with 100 mg/l RNaseA and were lysed with two passages using a microfluidizer. The lysate was clarified by centrifugation at 15,000g for 50 min and applied to nickel–nitrilotriacetic acid resin. The column resin was washed, and the PTP1B or STEP protein was eluted in lysis buffer at 300 mM imidazole. The PTP1B or STEP protein was further purified by S75 size-exclusion chromatography in 50 mM Tris, pH 7.5, 50 mM NaCl. The eluted peak fractions were supplemented with tris(2-carboxyethyl)phosphine to 10 mM, concentrated by ultrafiltration, and stored at −80 °C. The purified yield of PTP1B was 33 mg/l cell culture; the yield of STEP was 16 mg/l cell culture.
(§3) SHP2 inhibitors were tested at RT in a 384-well plate format standard phosphatase fluorescence intensity assay using DiFMUP (Invitrogen/Thermo Fisher Scientific) as a substrate and a total reaction volume of 25 μl. SHP2 inhibitors or vehicle (DMSO) were spotted in triplicate into a black Greiner FLUOTRAC 200 384-well microplate (catalog no.: 781076; Greiner) for a 10-point dose–response assay using an Echo 555 Liquid Handler (Labcyte, Inc). PTP working solutions were prepared at a 0.625 nM concentration (for a final concentration of 0.5 nM) in buffer containing 50 mM Bis–Tris, pH 6.0, 50 mM NaCl, 5 mM DTT, and 0.01% Tween-20. Prior to the assay, a dually phosphorylated IRS-1 peptide (625 nM [500 nM final] ([30])) was added to full-length WT SHP2 working solutions and incubated for 20 min. DiFMUP working solutions at 5× final concentration were prepared in 50 mM Bis–Tris, pH 6.0, 50 mM NaCl, and 0.01% Tween-20. About 20 μl of PTP working solution was dispensed into the microplate and incubated with inhibitor for 20 min at RT. […] The reaction was initiated by addition of 5 μl DiFMUP working solutions. Fluorescence intensity was measured in kinetic mode (every minute for 7 or 10 min) using a Tecan Spark Multimode Microplate Reader (Tecan) with an excitation wavelength of 360 nm and an emission wavelength of 460 nm. […]

[2] = biological target: T2, full-length SHP2-E76K oncogenic mutant (Homo sapiens, UniProt Q06124, E76K); test: DiFMUP fluorescence phosphatase inhibition assay, SHP2-E76K; format: biochemical; settings: DiFMUP at Km (20 μM), 10-point dose–response, pH 6.0
T2 construct: Recombinant human full-length SHP2 (1–594) WT and E76K mutants; made in house
T2 sequence (Q06124 1-593 E76K): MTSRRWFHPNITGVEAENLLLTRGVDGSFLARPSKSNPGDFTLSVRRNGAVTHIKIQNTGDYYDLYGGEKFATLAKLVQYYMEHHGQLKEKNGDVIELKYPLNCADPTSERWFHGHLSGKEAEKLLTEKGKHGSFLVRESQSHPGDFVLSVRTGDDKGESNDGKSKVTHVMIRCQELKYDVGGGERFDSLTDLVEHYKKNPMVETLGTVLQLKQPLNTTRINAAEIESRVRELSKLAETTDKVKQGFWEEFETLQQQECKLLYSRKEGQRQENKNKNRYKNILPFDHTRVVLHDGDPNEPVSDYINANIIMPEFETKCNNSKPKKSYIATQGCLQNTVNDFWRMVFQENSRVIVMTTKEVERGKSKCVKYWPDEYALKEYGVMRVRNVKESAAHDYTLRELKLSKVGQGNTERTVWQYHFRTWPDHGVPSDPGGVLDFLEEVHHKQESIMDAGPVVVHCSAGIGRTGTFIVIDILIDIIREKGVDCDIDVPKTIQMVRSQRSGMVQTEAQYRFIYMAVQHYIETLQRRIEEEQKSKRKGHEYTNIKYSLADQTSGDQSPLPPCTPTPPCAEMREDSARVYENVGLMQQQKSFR
Source text: as §1, §2, §3

| Structure (SMILES) | IC50 [1] [µM] | IC50 [2] [µM] |
| --- | --- | --- |
| Nc1ccc(NC(=O)c2cc(-c3ccc(/C=C4\Sc5ccccc5C4=O)o3)ccc2O)cc1 [SBI-2130, (Z)-N-(4-Aminophenyl)-2-hydroxy-5-(5-((3-oxobenzo[b]thiophen-2(3H)-ylidene)methyl)furan-2-yl)benzamide] | 5 | 0.48 |
| O=C1CCCC1=Cc1ccc(-c2ccc(O)c(C(=O)Nc3ccccc3)c2)o1 [SBI-3192, 2-Hydroxy-5-(5-((2-oxocyclopentylidene)methyl)furan-2-yl)-N-phenylbenzamide] | 4.1 | 2.3 |
| N#Cc1cc(-c2ccc(/C=C3\Sc4ccccc4C3=O)o2)ccc1O [SBI-3404, (Z)-2-Hydroxy-5-(5-((3-oxobenzo[b]thiophen-2(3H)-ylidene)methyl)furan-2-yl)benzonitrile] | 11 | 4.2 |
| O=C1/C(=C/c2ccc(-c3ccc(O)c(-c4nn[nH]n4)c3)o2)Sc2ccccc21 [SBI-3405, (Z)-2-((5-(4-Hydroxy-3-(2H-tetrazol-5-yl)phenyl)furan-2-yl)methylene)benzo[b]thiophen-3(2H)-one] | 4.2 | 4.1 |
| O=C(Nc1ccccc1)c1cc(-c2ccc(/C=C3\Sc4ccccc4C3=O)o2)ccc1O [SBI-4668, (Z)-2-Hydroxy-5-(5-((3-oxobenzo[b]thiophen-2(3H)-ylidene)methyl)furan-2-yl)-N-phenylbenzamide] | 15 | 1.8 |
